Data taken from patent US20240024338A1, “CARBIDOPA AND L-DOPA PRODRUGS AND METHODS OF USE” (AbbVie Inc., priority 2016, published 2024).

What was measured:
[1] = In vitro bioconversion study (skin homogenates), mini-pig; conditions: mini-pig skin homogenate 3 mg/mL, prodrug 2.5 μg/mL, 37° C.
[2] = Phosphate prodrug solubility study in water; assay type: physicochemical; conditions: for Solubility: water, ambient, visual assessment; for solubility compared to L-dopa and carbidopa (FIG. 1): pH of 7.4
Protocol: The L-dopa phosphate prodrugs and the carbidopa phosphate prodrugs were evaluated in a solubility study. The solubility values of the phosphate prodrugs in water under ambient conditions were determined by visual assessment. Table 13-A reports the results of the study, including the measured values for L-dopa and carbidopa.

[3] = In vitro bioconversion study (skin homogenates), rat; conditions: rat skin homogenate 3 mg/mL, prodrug 2.5 μg/mL, 37° C.
[4] = In vitro bioconversion study (blood), rat; conditions: prodrug 2.5 μg/mL, 37° C.
Protocol: The in vitro bioconversion of the L-dopa phosphate prodrugs to L-dopa and the carbidopa phosphate prodrugs to carbidopa was evaluated in several studies. […] The reaction mixtures were incubated at 37° C. for 5 to 6 time points within 1 to 2 hours. At the end of each time point, the reaction mixtures were quenched by 2 to 3 volumes of 5% trichloroacetic acid in water. After quenching, the mixtures were centrifuged at 3000 rpm for 20 minutes, and the supernatants were analyzed by LC-MS for quantitation of the prodrug, L-dopa or carbidopa. The in vitro bioconversion was assessed by monitoring both time-dependent depletion of the prodrug and the formation of the corresponding L-dopa or carbidopa.

[5] = In vitro bioconversion study (blood), human; assay type: in vitro ADME; conditions: prodrug 2.5 μg/mL, 37° C.
Protocol: (§2) The in vitro bioconversion of the L-dopa phosphate prodrugs to L-dopa and the carbidopa phosphate prodrugs to carbidopa was evaluated in several studies. In brief, the L-dopa and carbidopa phosphate prodrugs (2.5 μg/mL) were incubated with tissue homogenate or fractions from rats, mini-pigs, or human, including blood, skin homogenate (3 mg/mL), liver microsomes (1 mg/mL), liver S9 fraction (1 mg/mL), kidney S9 fraction (1 mg/mL), and intestine S9 fractions (1 mg/mL). The reaction mixtures were incubated at 37° C. for 5 to 6 time points within 1 to 2 hours. At the end of each time point, the reaction mixtures were quenched by 2 to 3 volumes of 5% trichloroacetic acid in water. After quenching, the mixtures were centrifuged at 3000 rpm for 20 minutes, and the supernatants were analyzed by LC-MS for quantitation of the prodrug, L-dopa or carbidopa. The in vitro bioconversion was assessed by monitoring both time-dependent depletion of the prodrug and the formation of the corresponding L-dopa or carbidopa.

[6] = In vitro bioconversion study (blood), mini-pig; assay type: in vitro ADME; conditions: prodrug 2.5 μg/mL, 37° C.
Protocol: as §2

[7] = In vitro bioconversion study (skin homogenates), human; conditions: human skin homogenate 3 mg/mL, prodrug 2.5 μg/mL, 37° C.
[8] = 1-Day stability study of prodrugs in aqueous solution; assay type: physicochemical; conditions: aqueous solution 80 μg/mL, ambient storage
Protocol: The L-dopa phosphate prodrugs and the carbidopa phosphate prodrugs were evaluated in a stability study.

[9] = for Bioconversion ratio (prodrug to active drug), Value: projected for human, mean of ratios observed in preclinical animals
[10] = In vitro bioconversion study, kidney S9 fraction, human; assay type: in vitro ADME; conditions: human kidney S9 fraction 1 mg/mL, prodrug 2.5 μg/mL, 37° C.
Protocol: as §2

[11] = In vitro bioconversion study, human liver microsomes; assay type: in vitro ADME; conditions: human liver microsomes 1 mg/mL, prodrug 2.5 μg/mL, 37° C.
Protocol: as §2

[12] = In vitro bioconversion study, liver S9 fraction, human; assay type: in vitro ADME; conditions: human liver S9 fraction 1 mg/mL, prodrug 2.5 μg/mL, 37° C.
Protocol: as §2

[13] = In vitro bioconversion study (intestinal S9 fractions), human; assay type: in vitro ADME; conditions: human intestinal S9 fraction 1 mg/mL, prodrug 2.5 μg/mL, 37° C.
Source text: (§1) The t1/2 appeared to be shorter in human intestinal S9 than in rat intestinal S9.

[14] = In vitro bioconversion study, liver S9 fraction, rat; assay type: in vitro ADME; conditions: rat liver S9 fraction 1 mg/mL, prodrug 2.5 μg/mL, 37° C.
Protocol: as §2

[15] = In vitro bioconversion study, liver S9 fraction, mini-pig; assay type: in vitro ADME; conditions: mini-pig liver S9 fraction 1 mg/mL, prodrug 2.5 μg/mL, 37° C.
Protocol: as §2

[16] = 15:1 L-dopa 4′-monophosphate/carbidopa 4′-monophosphate 16-hour SC infusion in mini-pigs; conditions: 15:1, 48/3.2 mg/kg
Protocol: In this study, the pig received a 16-hour subcutaneous infusion of a combination of the L-dopa 4′-monophosphate and the carbidopa 4′-monophosphate together in an aqueous solution at a dose ratio of 15:1 without an initial bolus dose. The doses were 48/3.2 mg/kg for L-dopa 4′-monophosphate and the carbidopa 4′-monophosphate, respectively.

[17] = In vitro bioconversion study, kidney S9 fraction, rat; assay type: in vitro ADME; conditions: rat kidney S9 fraction 1 mg/mL, prodrug 2.5 μg/mL, 37° C.
Protocol: as §2

[18] = In vitro bioconversion study (intestinal S9 fractions), rat; assay type: in vitro ADME; conditions: rat intestinal S9 fraction 1 mg/mL, prodrug 2.5 μg/mL, 37° C.
Source text: as §1

[19] = 7-Day stability study, 4′ monophosphate combination solution; assay type: physicochemical; conditions: combination solution: L-dopa 4′-monophosphate 200 mg/mL + carbidopa 4′-monophosphate 50 mg/mL, pH 7.4, room temperature
Protocol: In addition, a solution combining the L-dopa 4′-monophosphate at 200 mg/mL and carbidopa 4′-monophosphate at 50 mg/mL was monitored over 7 days at room temperature. These samples were prepared with and without purging with nitrogen to remove oxygen.

[20] = L-dopa 4′-monophosphate/carbidopa 4′-monophosphate 4:1, 16-hour subcutaneous infusion in rats; assay type: in vivo; conditions: 4:1, SC bolus 60/14 mg/kg then infusion 300/71 mg/kg
Protocol: After 1.5 hours, the combination was dosed again via continuous infusion at a dose of 300/71 mg/kg over next 14.5 hours. Blood samples were collected at […], 0.25, 1, 6, 16, and 24 hours post dose. […] FIG. 7 provides a time-concentration profile for L-dopa and L-dopa 4′-monophosphate blood levels after administration of the combination of 4′-monophosphate prodrugs at a 4:1 ratio. […] Steady state concentration of ˜1 μg/mL was maintained over the infusion period for carbidopa. […] FIG. 9 provides a time-concentration profile for carbidopa and carbidopa 4′-monophosphate blood levels after administration of the combination of 4′-monophosphate prodrugs at a 4:1 ratio.

[21] = listed as 4′-phosphate prodrug of carbidopa
[22] = listed as 4′-phosphate prodrug of L-dopa

Row | SMILES | L-Dopa or Carbidopa Formation [1] | T1/2 [1] | L-Dopa or Carbidopa Formation [3] | T1/2 [3] | L-Dopa or Carbidopa Formation [4] | T1/2 [4] | L-Dopa or Carbidopa Formation [5] | T1/2 [5] | L-Dopa or Carbidopa Formation [6] | T1/2 [6] | L-Dopa or Carbidopa Formation [7] | T1/2 [7] | CLp (plasma clearance), Value ([9]; human) | SC F (subcutaneous bioavailability), Value ([9]; human) | Bioconversion ratio (prodrug to active drug), Value [9] | stability and formation of L-dopa or carbidopa [10] | stability and formation of L-dopa or carbidopa [11] | solubility compared to L-dopa and carbidopa (FIG. 1) [2] | stability and formation of L-dopa or carbidopa [12] | L-Dopa or Carbidopa Formation [13] | also measured
1 | C[C@@](Cc1ccc(O)c(OP(=O)(O)O)c1)(NN)C(=O)O [Carbidopa 3′-phosphate, Carbidopa 3′-monophosphate] | Yes | 413 min | Yes | 724 min | Yes | 20.5 min | Yes | 58 min | Yes | 8.9 min | Yes | 602 min | – | – | – | – | – | – | – | – | Solubility ([2]; pH 7.1, Amorphous): >96 mg/mL; % Remaining After One Day ([8]; pH 6.5): >94%
2 | C[C@@](Cc1ccc(OP(=O)(O)O)c(O)c1)(NN)C(=O)O [Carbidopa 4′-phosphate, Carbidopa 4′-monophosphate] | Yes | – | – | – | Yes | – | – | – | – | – | Yes | – | 141 L/h | 0.65 | 0.7 | stable without formation of L-dopa or carbidopa observed | stable without formation of L-dopa or carbidopa observed | increased solubility | stable without formation of L-dopa or carbidopa observed | Yes | T1/2 [13, 21]: rapidly dephosphorylated; stability and formation of L-dopa or carbidopa [14]: stable without formation of L-dopa or carbidopa observed; stability and formation of L-dopa or carbidopa [15]: stable without formation of L-dopa or carbidopa observed; exposure of remaining carbidopa 4′-monophosphate as % of the carbidopa exposure [16]: ~22%; stability and formation of L-dopa or carbidopa [17]: stable without formation of L-dopa or carbidopa observed; L-Dopa or Carbidopa Formation [18]: Yes; T1/2 [18, 21]: rapidly dephosphorylated; % Remaining After 7 Days ([19]; Nitrogen Purged): >99%; % Remaining After 7 Days ([19]; Non-Purged): >97%; % Remaining After One Day ([8]; pH 6.8): >98%; exposure of remaining carbidopa 4′-monophosphate as % of carbidopa [20]: ~8%
3 | C[C@@](Cc1ccc(O)c(O)c1)(NN)C(=O)O [Carbidopa, (2S)-3-(3,4-dihydroxyphenyl)-2-hydrazino-2-methylpropanoic acid] | – | – | – | – | – | – | – | – | – | – | – | – | 18 L/h | – | – | – | – | – | – | – | –
4 | N[C@@H](Cc1ccc(O)c(OP(=O)(O)O)c1)C(=O)O [L-dopa 3′-phosphate] | Yes | 885 min | Yes | 737 min | Yes | 20.6 min | Yes | 28 min | Yes | 8.8 min | Yes | 673 min | – | – | – | – | stable without formation of L-dopa or carbidopa observed | – | – | – | Solubility ([2]; pH 7.0, Crystalline): >161 mg/mL; % Remaining After One Day ([8]; pH 7.0): >99%
5 | N[C@@H](Cc1ccc(OP(=O)(O)O)c(O)c1)C(=O)O [L-dopa 4′-phosphate, (S)-2-amino-3-(3-hydroxy-4-(phosphonooxy)phenyl)propanoic acid] | Yes | – | – | – | Yes | – | – | – | – | – | Yes | – | 100 L/h | 0.75 | 0.9 | stable without formation of L-dopa or carbidopa observed | – | increased solubility | stable without formation of L-dopa or carbidopa observed | Yes | T1/2 [13, 22]: rapidly dephosphorylated; stability and formation of L-dopa or carbidopa [14]: stable without formation of L-dopa or carbidopa observed; stability and formation of L-dopa or carbidopa [15]: stable without formation of L-dopa or carbidopa observed; exposure of remaining L-dopa 4′-monophosphate as % of the levodopa exposure [16]: ~10%; stability and formation of L-dopa or carbidopa [17]: stable without formation of L-dopa or carbidopa observed; L-Dopa or Carbidopa Formation [18]: Yes; T1/2 [18, 22]: rapidly dephosphorylated; % Remaining After 7 Days ([19]; Nitrogen Purged): >99%; % Remaining After 7 Days ([19]; Non-Purged): >99%; % Remaining After One Day ([8]; pH 7.0): >99%; exposure of remaining L-dopa 4′-monophosphate as % of levodopa [20]: ~22%
6 | N[C@@H](Cc1ccc(O)c(O)c1)C(=O)O [L-dopa, L-3,4-dihydroxyphenylalanine] | – | – | – | – | – | – | – | – | – | – | – | – | 24 L/h | – | – | – | – | – | – | – | CLp Levodopa ([9]; human): 24 L/h
